In patent US9763938B2, “Substituted quinoxalines as positive allosteric modulators of mGluR4” (MERCK PATENT GMBH, priority 2013, dated 2017):

What follows are molecules tested against T1, hmGluR4 (Homo sapiens, UniProt Q14833) (assay: HEK-293 mGluR4 cells cAMP assay with EC20 L-glutamate (HTRF)). Details: positive allosteric activity at EC20 L-glutamate, 10 μM forskolin, HEK293T mGluR4 cells, read-out: hrmGluR4/HEK293T-hmGluR4 (EC50).
T1 construct: host or cells: HEK293T
Format: cell-based
Procedure: HEK-293 mGluR4 Cells cAMP Assay with EC20 L-Glutamate
Using mGluR4 suspension cell format, 10 μM Forskolin (final conc.) used to induce the production of cAMP.
Test the positive allosteric activity of the compounds of the invention at EC20 (2.3 μM for mGluR4 and 4.3 μM for mGluR6) L-Glutamate,
cAMP dymanic2 kit is intended for the direct quantitative determination of cAMP and its principle is based on HTRF technology.
Cell Preparation: split cells at 80%-90% confluence. The following day, rinse the cells with DMEM without GlutaMax and change to Glutamine Starvation Media. Incubate overnight.
Prepare compound plate: Perform compound serial dilution (uses Matrix 4341 plate), using the Bravo liquid handling platform protocol (compound serial dilution) which adds DMSO to columns 1-24 (except cols. 3 and 13). Serial dilute compounds located in columns 3 and 13 at a 1:3 ratio; 10 points (10 ul of 3 mM compound into 20 ul DMSO). Use the Bravo liquid handling platform to transfer 1 ul from the serial dilution plate into Matrix 4314 plate to create stamp plates.
Dilute 20 mM Forskolin (in DMSO) stock solution in HBSS buffer to make a 20 uM solution (forskolin buffer; 2× solution). To the forskolin buffer, add glutamate to a concentration of 8 uM (compound dilution buffer; 2×EC20 glutamate and forskolin).
Using a multidrop, add 50 ul/well of compound dilution buffer to columns 1-22 of the 2 ul compound stamp plate. Columns 23 and 24 receive forskolin buffer containing 400 uM glutamate (EC100 glutamate; 2× solution). Columns 1 and 2 receive compound dilution buffer containing EC20 glutamate, which is the basal control. Add a glutamate dose response to row P of compound plate. Prepare the dose response by serial diluting glutamate at a 1:3 ratio in forskolin buffer starting at 2 mM glutamate (2×). Dilute the glutamate 9 times and transfer to compound plate.
Harvest cells: Rinse cells with pre-warmed HBSS-10 mM HEPES (without Ca Mg) and dissociate the cells from the flask with versene. Centrifuge the cells, remove the supernatant and suspend in pre-warmed HBSS+10 mM Hepes. Count the cells and centrifuge. Remove the supernatant and suspend the cells in HBSS+Hepes (with Ca Mg) at a density of 400,000 cells/ml.
Dispense 5 ul from the diluted compound plate into Greiner low volume cell plate using the Bravo liquid handling platform. Using a Multidrop with the small tubing cassette, dispense 5 ul of cells (2000 cells/well) onto the compounds contained in the low volume plates. Incubate the cells at 37° C., 5% CO2 for 30 minutes in the incubator.
Prepare cAMP-d2 and anti-cAMP-Crytate according to the instructions for the two step assay (see Cisbio manual) and add 10 ul of the mixed reagent to each well of the assay plate using the Multidrop. Incubate at room temperature for 60 minutes and read on the Envision plate reader using the mGluR low volume cAMP HTRF 384 well protocol. The readout is the calculated fluorescence ratio ([…]*10000).

T1 sequence (Q14833 33-912): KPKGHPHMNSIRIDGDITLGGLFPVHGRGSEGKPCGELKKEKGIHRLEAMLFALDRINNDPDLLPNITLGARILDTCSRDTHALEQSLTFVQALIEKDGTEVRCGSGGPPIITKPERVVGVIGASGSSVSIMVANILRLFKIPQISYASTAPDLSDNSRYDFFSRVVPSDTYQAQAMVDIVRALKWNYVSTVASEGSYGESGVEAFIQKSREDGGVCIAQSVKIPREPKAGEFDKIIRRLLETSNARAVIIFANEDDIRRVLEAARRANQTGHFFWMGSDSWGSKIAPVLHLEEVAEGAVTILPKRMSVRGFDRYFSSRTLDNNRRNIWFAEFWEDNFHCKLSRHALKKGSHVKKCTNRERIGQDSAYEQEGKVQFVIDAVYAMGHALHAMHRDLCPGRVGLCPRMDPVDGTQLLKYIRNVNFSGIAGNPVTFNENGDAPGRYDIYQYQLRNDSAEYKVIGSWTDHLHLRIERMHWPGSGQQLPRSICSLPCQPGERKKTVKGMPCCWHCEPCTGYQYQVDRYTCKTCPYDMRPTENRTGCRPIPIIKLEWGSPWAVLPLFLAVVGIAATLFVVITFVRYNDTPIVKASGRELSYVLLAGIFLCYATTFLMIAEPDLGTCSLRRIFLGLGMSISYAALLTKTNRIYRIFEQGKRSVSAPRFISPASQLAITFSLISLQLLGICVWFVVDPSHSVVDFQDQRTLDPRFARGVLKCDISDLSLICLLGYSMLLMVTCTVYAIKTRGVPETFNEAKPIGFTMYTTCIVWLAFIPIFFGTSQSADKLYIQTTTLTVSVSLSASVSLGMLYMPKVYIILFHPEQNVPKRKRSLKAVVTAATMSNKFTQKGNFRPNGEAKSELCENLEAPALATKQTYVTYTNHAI

`OC1CCN(c2nc3ccccc3nc2-c2ccccc2)CC1` [Compound 3, 1-(3-Phenyl-quinoxalin-2-yl)-piperidin-4-ol] and `Oc1ccc(-c2nc3ccccc3nc2-c2ccccc2)cc1` [Compound 2, 4-(3-Phenyl-quinoxalin-2-yl)-phenol] cannot be ordered by EC50: < 1 µM for the first, < 1 µM for the second.

`Fc1ccccc1-c1nc2ccccc2nc1-c1ccccc1F` [Compound 9, 2,3-Bis-(2-fluoro-phenyl)-quinoxaline] and `Fc1ccc(-c2nc3ccccc3nc2-c2ccccc2)cc1F` [Compound 10, 2-(3,4-Difluoro-phenyl)-3-phenyl-quinoxaline] fall in the same range of EC50: 1 to 10 µM for the first, 1 to 10 µM for the second.

`Cc1cccc2nc(-c3ccccc3)c(-c3ccccc3)nc12` [Compound 5, 5-Methyl-2,3-diphenyl-quinoxaline] and `CC(=O)c1cccc2nc(-c3ccccc3)c(-c3ccccc3)nc12` [Compound 7, 1-(2,3-Diphenyl-quinoxalin-5-yl)-ethanone] fall in the same range of EC50: 1 to 10 µM for the first, 1 to 10 µM for the second.

Compared with `Fc1ccc(-c2nc3ccccc3nc2-c2cccc3[nH]ccc23)cc1F` [Compound 4, 2-(3,4-Difluoro-phenyl)-3-(1H-indol-4-yl)-quinoxaline], `c1ccc(-c2nc3ccccc3nc2-c2ccnc3ccccc23)cc1` [Compound 1, 2-Phenyl-3-quinolin-4-yl-quinoxaline] is lower in EC50: 1 to 10 µM for the first, < 1 µM for the second.

`c1ccc(-c2nc3ccccc3nc2-c2cccc3cccnc23)cc1` [Compound 6, 2-Phenyl-3-quinolin-8-yl-quinoxaline] and `c1ccc(-c2nc3c(nc2-c2ccccc2)CCCC3)cc1` [Compound 8, 2,3-Diphenyl-5,6,7,8-tetrahydro-quinoxaline] fall in the same range of EC50: 1 to 10 µM for the first, 1 to 10 µM for the second.
